These results are taken from PubChem BioAssay (NCI).

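Grown in 96-well plates, cells were treated for 48 hours with each compound at five concentrations. Insufficient inhibition: endpoint recorded as highest concentration tested. At the GI50, growth is halved. TGI denotes the concentration required for complete inhibition of growth.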

Some test systems named below: MCF7 breast; SN12C renal; NCI-H23 lung; K-562 leukemia; SK-MEL-28 melanoma; LOX IMVI melanoma; PC-3 prostate; 786-0 renal; COLO 205 colon; CCRF-CEM leukemia.
Common to all, as to experiment: NCI anticancer screen, dose series, 48 h

Turning to `O=[N+]([O-])/C=C/c1c(Cl)cccc1Cl`, the TGI stood at 3.29 µM in the assay on MCF7 breast; 5.65 µM with SN12C renal; 16.8 µM in the assay with NCI-H23 lung; 8.61 µM with K-562 leukemia; 10.9 µM with SK-MEL-28 melanoma; 3.16 µM in the assay on LOX IMVI melanoma. Moreover, the TGI in the assay on PC-3 prostate is 5.58 µM; in the assay on 786-0 renal it was 1.52 µM; with COLO 205 colon, 1.76 µM; in the assay on CCRF-CEM leukemia, over 18.2 µM.
For the molecule `O=S(=O)(NC1CCCCC1)c1ccc2c(c1)OCCOCCOCCOCCO2`, the TGI with MCF7 breast, with SN12C renal, in the assay on NCI-H23 lung, in the assay with K-562 leukemia, with SK-MEL-28 melanoma and with LOX IMVI melanoma was over 100 µM in each case. In addition, the TGI with PC-3 prostate, with 786-0 renal, in the assay on COLO 205 colon and in the assay with CCRF-CEM leukemia was over 100 µM each time.
With `COc1ccc2c(c1)/C(=C\c1ccncc1)C(=O)N2`, the GI50 with MCF7 breast is 8.68 µM; in the assay with SN12C renal it was 10.3 µM; in the assay with NCI-H23 lung it was 12.3 µM; with K-562 leukemia, 3.41 µM; with LOX IMVI melanoma, 2.26 µM; in the assay with PC-3 prostate, 25 µM. In addition, the GI50 with 786-0 renal is 12.5 µM; with COLO 205 colon it was 11.9 µM; in the assay with CCRF-CEM leukemia, 3.06 µM. The TGI in the assay with MCF7 breast is over 100 µM; in the assay on SN12C renal, 23.7 µM; in the assay on NCI-H23 lung, 43.5 µM; in the assay with K-562 leukemia, 9.56 µM; in the assay on LOX IMVI melanoma it was 5.82 µM; in the assay with PC-3 prostate, over 100 µM. Further, the TGI with 786-0 renal is 29.3 µM; with COLO 205 colon it was 44.7 µM; in the assay on CCRF-CEM leukemia, over 100 µM.
On to `COc1ccc2c(c1)[n+](=O)c(C(=O)c1cccs1)c(C(F)(F)F)n2[O-]`, for which the GI50 in the assay with MCF7 breast is 4.58 µM; in the assay with SN12C renal, 2.18 µM; in the assay on NCI-H23 lung, 2.88 µM; in the assay on K-562 leukemia, 2.56 µM; in the assay with SK-MEL-28 melanoma, 16.3 µM; in the assay with LOX IMVI melanoma, 2.09 µM. Moreover, the GI50 is 2.42 µM in the assay on PC-3 prostate, 17 µM in the assay on 786-0 renal, 7.49 µM with COLO 205 colon and 11 µM in the assay on CCRF-CEM leukemia. In addition, the TGI was 23.7 µM with MCF7 breast; 10.4 µM with SN12C renal; 25.8 µM in the assay with NCI-H23 lung; over 50 µM in the assay with K-562 leukemia; over 50 µM with SK-MEL-28 melanoma; 12.7 µM with LOX IMVI melanoma. The TGI with PC-3 prostate is 18.6 µM; in the assay with 786-0 renal it was over 50 µM; in the assay with COLO 205 colon, over 50 µM; in the assay on CCRF-CEM leukemia it was over 50 µM.
In the case of `CN(C)C(=O)Nc1nc2cc(Cl)c(Cl)cc2[nH]1`, the GI50 in the assay on MCF7 breast was 0.367 µM; in the assay with SN12C renal, 1.36 µM; in the assay on NCI-H23 lung, 2.07 µM; in the assay with K-562 leukemia, 0.41 µM; in the assay on SK-MEL-28 melanoma, 8.63 µM; in the assay on LOX IMVI melanoma, 1.87 µM. Also, the GI50 in the assay with PC-3 prostate is 0.566 µM; in the assay with 786-0 renal, 1.21 µM; in the assay with COLO 205 colon it was 0.661 µM; in the assay on CCRF-CEM leukemia it was 0.953 µM. Besides, the TGI with MCF7 breast was over 100 µM; with SN12C renal, over 100 µM; in the assay with NCI-H23 lung, over 66.5 µM; in the assay on K-562 leukemia it was over 33.8 µM; in the assay with SK-MEL-28 melanoma, over 100 µM; with LOX IMVI melanoma, over 100 µM. In addition, the TGI with PC-3 prostate was over 51.8 µM; in the assay with 786-0 renal, over 100 µM; in the assay on COLO 205 colon it was 5.08 µM; with CCRF-CEM leukemia, over 100 µM.
`CCOc1ccc2c(-c3ccnc(Nc4cc(OC)cc(C(F)(F)F)c4)n3)cnn2n1`: the GI50 was 1.13 µM in the assay with MCF7 breast; over 25 µM in the assay on SN12C renal; over 21.9 µM in the assay with NCI-H23 lung; 1.97 µM with K-562 leukemia; over 23 µM with SK-MEL-28 melanoma; 15.7 µM in the assay with LOX IMVI melanoma. The GI50 with PC-3 prostate was over 15.5 µM; in the assay on 786-0 renal, over 13.3 µM; in the assay on COLO 205 colon, over 25 µM; in the assay with CCRF-CEM leukemia it was over 25 µM. For the same molecule, the TGI in the assay with MCF7 breast, in the assay on SN12C renal, in the assay with NCI-H23 lung, with K-562 leukemia, in the assay with SK-MEL-28 melanoma and in the assay with LOX IMVI melanoma was over 25 µM each time. Further, the TGI in the assay with PC-3 prostate, in the assay with 786-0 renal, with COLO 205 colon and in the assay with CCRF-CEM leukemia was over 25 µM in each case.
Turning to `COC(C)(C)[C@@H](O)[C@H](O)C[C@H](C)C1=C2CC[C@@H]3[C@@]4(C)CC[C@@H](OC(C)=O)C(C)(C)[C@@H]4C[C@@H](OC4OC(COC(C)=O)C(O)C(O)C4O)[C@@]3(C)[C@]2(C)CC1` (stereo partly drawn), the GI50 in the assay with MCF7 breast was 2.62 µM; in the assay on SN12C renal it was 13.4 µM; with NCI-H23 lung, 14.4 µM; in the assay with K-562 leukemia it was 6.06 µM; in the assay with SK-MEL-28 melanoma it was 11.7 µM; with LOX IMVI melanoma, 6.36 µM. The GI50 is 5.68 µM in the assay on PC-3 prostate, 14.4 µM in the assay with 786-0 renal, 10.6 µM in the assay with COLO 205 colon and 5.34 µM in the assay on CCRF-CEM leukemia. Further, the TGI stood at 12.4 µM with MCF7 breast; 26.4 µM in the assay with SN12C renal; 27.4 µM with NCI-H23 lung; 22.3 µM in the assay with K-562 leukemia; 24.2 µM in the assay on SK-MEL-28 melanoma; 19.6 µM in the assay with LOX IMVI melanoma. Also, the TGI with PC-3 prostate worked out at 18.5 µM; with 786-0 renal, 27.5 µM; with COLO 205 colon, 22.8 µM; in the assay with CCRF-CEM leukemia, 19.9 µM.
On to `C#C[C@]1(O)CC[C@H]2[C@@H]3CC=C4c5sc(Nc6cc(F)ccc6F)nc5CC[C@]4(C)[C@H]3CC[C@@]21C`, for which the GI50 was 1.5 µM with MCF7 breast; 2.15 µM in the assay on SN12C renal; 1.78 µM in the assay with NCI-H23 lung; 1.96 µM in the assay with K-562 leukemia; 1.09 µM in the assay with SK-MEL-28 melanoma; 1.49 µM with LOX IMVI melanoma. In addition, the GI50 was 1.34 µM in the assay with PC-3 prostate, 0.415 µM in the assay on 786-0 renal, 2.05 µM in the assay with COLO 205 colon and 0.669 µM with CCRF-CEM leukemia. In addition, the TGI in the assay on MCF7 breast is 3.26 µM; in the assay on SN12C renal, 5.23 µM; in the assay on NCI-H23 lung, 4.38 µM; in the assay with K-562 leukemia, over 100 µM; with SK-MEL-28 melanoma, 2.34 µM; in the assay on LOX IMVI melanoma, 2.87 µM. Also, the TGI in the assay with PC-3 prostate was determined as 10.3 µM; in the assay with 786-0 renal, 1.84 µM; in the assay on COLO 205 colon, 4.81 µM; in the assay on CCRF-CEM leukemia, 4.81 µM.
